Measured values: patent US5492919A, “5-HT4 receptor antagonists” (SmithKline Beecham p.l.c., priority 1991, dated 1996)

What was measured:
5-HT4 receptor [1] = target: T1, 5-HT4 receptor (Cavia porcellus, UniProt O70528); test: 5-HT4 receptor antagonist activity: guinea pig colon (longitudinal muscle-myenteric plexus preparations), reduction of 5-HT-evoked contractions; assay type: cell-based; details: for activity in guinea pig colon, in words: relative to compounds generally active at pIC50 = 6 or more
T1 construct: Longitudinal muscle-myenteric plexus preparations, approximately 3 cm long, are obtained from the distal colon region; from tissue; host or cells: guinea pig distal colon, longitudinal muscle-myenteric plexus preparation
Method: (§1) 5-HT4 RECEPTOR ANTAGONIST ACTIVITY
Male guinea-pigs, weighing 250-400 g are used. Longitudinal muscle-myenteric plexus preparations, approximately 3 cm long, are obtained from the distal colon region. These are suspended under a 0.5 g load in isolated tissue baths containing Krebs solution bubbled with 5% CO2 in O2 and maintained at 37° C. In all experiments, the Krebs solution also contains methiothepin 10^-7 M and granisetron 10^-6 M to block effects at 5-HT1, 5-HT2 and 5-HT3 receptors.
After construction of a simple concentration-response curve with 5-HT, using 30s contact times and a 15rain dosing cycle, a concentration of 5-HT is selected so as to obtain a contraction of the muscle approximately 40-70% maximum(10^-9 M approx). The tissue is then alternately dosed every 15 min with this concentration of 5-HT and then with an approximately equi-effective concentration of the nicotine receptor stimulant, dimethylphenylpiperazinium (DMPP). After obtaining consistent responses to both 5-HT and DMPP, increasing concentrations of a putative 5-HT4 receptor antagonist are then added to the bathing solution. The effects of this compound are then determined as a percentage reduction of the contractions evoked by 5-HT or by DMPP. […] A compound which reduces the response to 5-HT but not to DMPP is believed to act as a 5-HT4 receptor antagonist.

5-HT4 receptor [2] = target: T2, 5-HT4 receptor (Sus scrofa, UniProt Q6Q253); test: 5-HT4 receptor antagonist activity: piglet atria, piglet spontaneous beating screen; assay type: cell-based
T2 construct: functional antagonism (pKB)
Method: as §1
Compounds were tested in the piglet spontaneous beating screen (Naunyn-Schmiedeberg's Arch. Pharmacol 342, 619-622). pKB (-log10 KB) value for the compound of Example 21 of EP-A-328200 was 7.6.

T1 sequence (O70528 whole entry): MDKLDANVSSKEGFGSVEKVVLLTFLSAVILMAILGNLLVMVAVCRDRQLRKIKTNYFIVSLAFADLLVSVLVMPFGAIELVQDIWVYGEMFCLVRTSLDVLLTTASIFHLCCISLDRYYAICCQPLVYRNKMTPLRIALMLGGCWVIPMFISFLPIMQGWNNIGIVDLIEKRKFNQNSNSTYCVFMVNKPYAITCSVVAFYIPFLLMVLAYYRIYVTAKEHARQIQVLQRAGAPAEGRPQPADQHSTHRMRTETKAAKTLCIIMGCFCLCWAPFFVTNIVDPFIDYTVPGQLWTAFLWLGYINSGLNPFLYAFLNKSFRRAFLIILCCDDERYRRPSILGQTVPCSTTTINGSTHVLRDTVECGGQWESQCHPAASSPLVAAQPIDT
T2 sequence (Q6Q253 1-402): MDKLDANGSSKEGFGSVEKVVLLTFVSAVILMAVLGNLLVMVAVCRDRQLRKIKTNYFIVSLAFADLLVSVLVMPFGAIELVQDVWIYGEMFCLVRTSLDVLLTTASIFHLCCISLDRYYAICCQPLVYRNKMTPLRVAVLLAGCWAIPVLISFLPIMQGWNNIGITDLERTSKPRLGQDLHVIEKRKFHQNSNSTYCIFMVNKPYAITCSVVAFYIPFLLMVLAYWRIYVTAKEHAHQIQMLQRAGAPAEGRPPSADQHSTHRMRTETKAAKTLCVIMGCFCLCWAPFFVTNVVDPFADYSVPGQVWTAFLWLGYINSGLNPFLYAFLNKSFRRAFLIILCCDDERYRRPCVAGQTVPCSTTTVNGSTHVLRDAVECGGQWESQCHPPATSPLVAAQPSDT

SMILES | activity in guinea pig colon, in words (5-HT4 receptor [1]) | pKB (-log10 KB) (5-HT4 receptor [2]) | IC50 (5-HT4 receptor [1]; 5-HT approx 10^-9 M, Krebs solution with methiothepin 10^-7 M and granisetron 10^-6 M, 37° C, read-out: pIC50 (-log concentration of antagonist which reduces the contraction by 50%) (converted)) [nM]
CCCCN1CCC(Cc2nc(-c3cn(C)c4ccccc34)no2)CC1 [Example E3] | particularly good activity | – | –
CCCCN(C)CCCc1nc(-c2cn(C)c3ccccc23)no1 [Example E1, 5-[3-(N-Methylbutylamino)propyl]-3-[1-methyl-1H-indol-3-yl]-1,2,4-oxadiazole] | particularly good activity | – | –
Cn1cc(-c2noc(CCN3CCCCC3)n2)c2ccccc21 [Example 21 of EP-A-328200, 1-methyl-3-[5-(2-(1-piperidyl)ethyl)-1,2,4-oxadiazol-3-yl]indole] | – | 7.6 | 50.1
